Here are results for 2 compounds from patent US3946000A, “7-[α-(2-Aminomethyl-1-cyclohexenyl)-acetamido]-3-heterocyclic thiomethyl-3-cephem-4-carboxylic acids” (Bristol-Myers Company, priority 1973, dated 1976).

Data set [1] relates to Str. pyogenes A9604. The experiment in a line: M.I.C. by Tube Dilution, Str. pyogenes A9604. The conditions noted are these: Streptococcus pyogenes; Str. pyogenes A9604 + 5% serum; 50% Nutrient Broth - 45% Antibiotic Assay Broth; overnight at 37° C. It counts as cell-based.
In data set [2] the test system is Ps. aeruginosa A9843. The experiment in a line: M.I.C. by Tube Dilution, Ps. aeruginosa A9843. The data set is classed as cell-based. The note with it: Pseudomonas aeruginosa, 10^-4 dilution, overnight at 37° C.
Data set [3] relates to Sal. enteritidis A9531. The experiment in a line: M.I.C. by Tube Dilution, Sal. enteritidis A9531. The data set is classed as cell-based. The conditions noted are these: Salmonella enterica, 10^-4 dilution, overnight at 37° C.
The subject of data set [4] is Ser. marcescens A20019. Kind of data set: M.I.C. by Tube Dilution, Ser. marcescens A20019. The conditions noted are these: Serratia marcescens, 10^-4 dilution, overnight at 37° C. The data set is classed as cell-based.
For data set [5], the system named is Pr. mirabilis A9900. Kind of data set: M.I.C. by Tube Dilution, Pr. mirabilis A9900. The data set is classed as cell-based. The note with it: Proteus mirabilis, 10^-4 dilution, overnight at 37° C.
For data set [6], the system named is Pr. morganii A15153. The experiment in a line: M.I.C. by Tube Dilution, Pr. morganii A15153. The data set is classed as cell-based. The note with it: Morganella morganii, 10^-4 dilution, overnight at 37° C.
The test system of data set [7] is K. pneumoniae A9977. Kind of data set: M.I.C. by Tube Dilution, K. pneumoniae A9977. It counts as cell-based. The note with it: Klebsiella pneumoniae, 10^-4 dilution, overnight at 37° C.
The subject of data set [8] is S. aureus BX1633 A9606. Kind of data set: M.I.C. by Tube Dilution, S. aureus BX1633 A9606. It counts as cell-based. The conditions noted are these: Staphylococcus aureus, BX1633A9606, S. aureus BX1633 A9606; Nutrient Broth, overnight at 37° C.
Data set [9] relates to E. coli Juhl A15119. The experiment in a line: M.I.C. by Tube Dilution, E. coli Juhl A15119. The data set is classed as cell-based. The note with it: Escherichia coli, JUHLA15119, 10^-4 dilution, overnight at 37° C.
Data set [10] has as its system D. pneumoniae A9585. Kind of data set: M.I.C. by Tube Dilution, D. pneumoniae A9585. The data set is classed as cell-based. The note with it: Streptococcus pneumoniae, A9585, D. pneumoniae A9585 + 5% serum; 50% Nutrient Broth - 45% Antibiotic Assay Broth; overnight at 37° C.
Data set [11] relates to S. aureus BX-1633. Kind of data set: Minimum curative dose in infected mice, S. aureus BX-1633. The data set is classed as in vivo. The conditions noted are these: Staphylococcus aureus, BX1633, sc; subcutaneous, mice infected with lethal dose of S. aureus BX-1633; read-out: CD50 (minimum curative dose for 50% of the mice).
Data set [12] has as its system E coli Juhl. Kind of data set: Minimum curative dose in infected mice, E coli Juhl. It counts as in vivo. The conditions noted are these: Mus musculus, sc; subcutaneous, mice infected with lethal dose of E coli Juhl; read-out: CD50 (minimum curative dose for 50% of the mice).
The nature of data set [13]: Solubility in 0.1 M pH 7.0 phosphate buffer (bioassay and UV-assay). The data set is classed as physicochemical. The note with it: for solubility at 4 h: 0.1 m phosphate buffer, pH 7, aqueous buffer. The method, then: *Stirred at 25° C. for 4 hours in 0.1 M pH 7.0 phosphate
buffer--filtered through Milipore filter (0.45 μ)--assayed
spectroscopically against its own standard.
The test solution and the standard solution are prepared as described below.
About 10 mg. (1) of a sample is placed in a vial and mixed with 1 ml. of 0.1 M phosphate buffer (pH 7.0). The vial is stoppered, sealed with a metal cap, placed on a rotary shaker and agitated at 160 rpm for 4 hr. at 25° C. The solution is filtered through a Millipore filter (HAWP 01300, mean pore size 0.45 μm). The filtrate is diluted to use for bioassay and UV assay as follows:
About 2 mg. of the same sample is weighed precisely and dissolved in 4 ml. of 1% K2 CO3 solution^(3) (usually within one minute). The solution is diluted exactly to 50 ml. in a flask with 0.1 M pH 7.0 phosphate buffer and used for the preparation of the standard solutions for bioassay and UV-assay as follows:
(1) A 20 mg. or more sample is used when the sample is expected to be more soluble.
(2) 0.1 M pH 7.0 phosphate buffer is used as a diluent in the present test and also as a reference solution in UV-assay.
(3) It was previously confirmed that almost the same result is obtained when the sample is solubilized in DMSO (dimethylsulfoxide) and then diluted similarily with the buffer.
(4) Volume of the solution is measured precisely with an appropriate pipette or flask.
BA: Bioassay, UV: UV-assay Results given for the same compound on different lines were obtained using samples from different lots.

The test system of data set [14] is E. coli NIHJ. The experiment in a line: M.I.C. by Tube Dilution, E. coli NIHJ. The data set is classed as cell-based. The note with it: Escherichia coli, overnight at 37° C.
For data set [15], the system named is Mycobacterium 607. Kind of data set: M.I.C. by Tube Dilution, Mycobacterium 607. The data set is classed as cell-based. The note with it: overnight at 37° C.
In data set [16] the test system is E. coli ATCC 8739. Kind of data set: M.I.C. by Tube Dilution, E. coli ATCC 8739. It counts as cell-based. The conditions noted are these: Escherichia coli, ATCC8739, overnight at 37° C.
The test system of data set [17] is S. aureus Russel. Kind of data set: M.I.C. by Tube Dilution, S. aureus Russel. It counts as cell-based. The conditions noted are these: Staphylococcus aureus, Nutrient Broth, overnight at 37° C.
Data set [18] has as its system K. pneumoniae A15130. Kind of data set: M.I.C. by Tube Dilution, K. pneumoniae A15130. The data set is classed as cell-based. The conditions noted are these: Klebsiella pneumoniae, 10^-4 dilution, overnight at 37° C.
The test system of data set [19] is S. aureus Smith A9537. The experiment in a line: M.I.C. by Tube Dilution, S. aureus Smith A9537. The data set is classed as cell-based. The note with it: Staphylococcus aureus, 10^-4 dilution, overnight at 37° C.
The nature of data set [20]: Water solubility. The data set is classed as physicochemical. The note with it: sodium salt.

Structures are written as SMILES. ≈ marks a conversion by molar mass, not a printed value. Where two headings read alike, the source gives them in different places. Where only a bound is given, the exact number is not on record here.

As usually defined, the MIC is the smallest concentration in the dilution series that meets the test's criterion for growth inhibition. What is called solubility is how much of the substance goes into solution per volume.

In the case of `Cn1nnnc1SCC1=C(C(=O)O)N2C(=O)C(NC(=O)CC3=C(CN)CCCC3)[C@H]2SC1` (stereo partly shown) [Example 3, 7-[(2-aminomethyl-1-cyclohexen-1-yl)acetamido]-3-(1-methyltetrazol-5-ylthiomethyl)-3-cephem-4-carboxylic acid], the MIC in data set [1] was 0.04 to 0.08 µg/mL; in data set [2] it was over 100 µg/mL; in data set [3] it was 1.6 to 3.1 µg/mL (≈ 3.34 to 6.46 µM); in data set [4], over 100 µg/mL; in data set [5], 100 µg/mL (≈ 209 µM); in data set [6], over 100 µg/mL. The minimum inhibitory concentration (MIC) was 0.8 to 3.1 µg/mL (≈ 1.67 to 6.46 µM) in data set [7]; 1.6 µg/mL (≈ 3.34 µM) in data set [8]; 3.1 to 6.3 µg/mL (≈ 6.46 to 13.1 µM) in data set [9]; 0.04 to 0.08 µg/mL in data set [10]; 1.6 to 3.1 µg/mL (≈ 3.34 to 6.46 µM) in data set [14]; over 100 µg/mL in [15]. In addition, the MIC is 3.1 to 6.3 µg/mL (≈ 6.46 to 13.1 µM) in [16]; 0.4 to 0.8 µg/mL (≈ 0.834 to 1.67 µM) in [17]; 3.1 to 6.3 µg/mL (≈ 6.46 to 13.1 µM) in data set [18]; 0.8 to 1.6 µg/mL in data set [19] (SMITHA9537, S. aureus Smith A9537 + 50% serum); 0.2 to 0.4 µg/mL (≈ 0.417 to 0.834 µM) in [19] (SMITHA9537, S. aureus Smith A9537, Nutrient Broth). Further, the ED50 in data set [11] turned out to be 2.4 mg/kg; in data set [12], 5.4 mg/kg. Moreover, in data set [13] (0.1 M phosphate buffer (pH 7.0), 4 hr. at 25° C., UV-assay, listed as BB-S336, 240 min), the “Solubility, UV (UV-assay)” value is 26.0 mg/mL (≈ 54200 µM). The “Solubility, BA (bioassay)” value in data set [13] (0.1 M phosphate buffer (pH 7.0), 4 hr. at 25° C., bioassay, listed as BB-S336, 240 min) was determined as 23.0 mg/mL (≈ 48000 µM). Moreover, the solubility at 4 h is 24.6 mg/mL (≈ 51300 µM) in data set [13] (0.1 M phosphate buffer (pH 7.0), 4 hr. at 25° C., UV-assay, read-out: Solubility, UV (UV-assay)); 25.6 mg/mL (≈ 53400 µM) in data set [13] (0.1 M phosphate buffer (pH 7.0), 4 hr. at 25° C., bioassay, read-out: Solubility, BA (bioassay)); 23 to 26 mg/mL (≈ 48000 to 54200 µM) in [13] (stirred at 25° C. for 4 hours in 0.1 M pH 7.0 phosphate buffer, assayed spectroscopically against its own standard, read-out: Solubility).

Turning to `Cn1nnnc1SCC1=C(C(=O)O)N2C(=O)C(NC(=O)CC3=C(CN)CCCC3)C2SC1` (stereo not shown) [Example 15], the solubility in data set [20] was over 250 mg/mL.
